Measured values published in PMC12362615, “Design, Synthesis, and Cellular Characterization of a New Class of IPMK Kinase Inhibitors” (Journal of Medicinal Chemistry, 2025).
Several values for one entry are separate records, joined by “and”; a condition that tells them apart may be missing. Equal values may be shown once. Read-outs that look alike come from different tables or passages of the source.

Legend:
[1] = biological target: T1, purified recombinant human IP6K2 kinase domain (Homo sapiens, UniProt Q9UHH9); assay: IP6K2 IC50 determination, malachite green Pi release assay; type: biochemical; settings: for IP6K2/IPMK: Table S1, ratio of IC50 values; for IC50: supplementary csv
T1 sequence (Q9UHH9 1-426): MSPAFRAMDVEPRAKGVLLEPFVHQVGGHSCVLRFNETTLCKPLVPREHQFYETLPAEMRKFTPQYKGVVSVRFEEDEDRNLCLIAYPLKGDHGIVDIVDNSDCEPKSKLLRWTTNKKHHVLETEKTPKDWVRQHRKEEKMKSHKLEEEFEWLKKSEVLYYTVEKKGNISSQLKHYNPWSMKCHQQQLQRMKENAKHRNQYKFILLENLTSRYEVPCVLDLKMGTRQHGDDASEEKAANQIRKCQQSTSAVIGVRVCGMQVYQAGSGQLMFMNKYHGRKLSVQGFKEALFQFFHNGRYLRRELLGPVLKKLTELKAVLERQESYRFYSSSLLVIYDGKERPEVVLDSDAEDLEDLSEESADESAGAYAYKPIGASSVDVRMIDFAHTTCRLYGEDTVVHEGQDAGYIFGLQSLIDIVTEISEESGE
Experimental: IP6K2 IC50 values were determined using the purified recombinant human IP6K2 kinase domain expressed in a 384-well clear polystyrene plate (VWR 82051-264). This human IP6K2 kinase domain (100 nM) was used at 37 °C in 50 μL reaction mixtures containing 5.0 μM human Dipp1, 50 mM Tris (pH 6.9), 10 mM MgCl2, 0.02% Triton X-100, 25 μM InsP6, and 50 μM ATP for 30 min. Pi release was determined with a malachite green colorimetric assay. Reactions were quenched by the addition of 12.5 μL of phosphate detection reagent (MAK3071KT, Sigma-Aldrich). Pi release was quantified from the absorbance at 620 nm by using appropriate standards.

[2] = biological target: T2, purified recombinant human IPMK kinase domain (Homo sapiens, UniProt Q8NFU5); assay: IPMK IC50 determination, Kinase-Glo assay; type: biochemical
T2 sequence (Q8NFU5 with tags, fused parts or gaps): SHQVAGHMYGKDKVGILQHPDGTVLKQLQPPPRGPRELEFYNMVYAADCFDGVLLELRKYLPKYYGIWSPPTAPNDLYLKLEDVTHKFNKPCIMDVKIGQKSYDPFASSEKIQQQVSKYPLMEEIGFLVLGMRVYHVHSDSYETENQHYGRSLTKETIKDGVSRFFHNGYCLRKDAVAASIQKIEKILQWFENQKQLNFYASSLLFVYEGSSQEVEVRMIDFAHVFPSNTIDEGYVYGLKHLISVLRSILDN
Excerpt: (§1) These assay conditions were optimized with respect to reaction time, IPMK enzyme concentration, and IP3 concentration to determine the IC50 values for these ATP-competitive compounds.

[3] = tested on: purified recombinant human IPMK kinase domain; assay: IPMK IC50 determination, Kinase-Glo assay; type: biochemical; settings: for decrease of inhibitory activity toward IPMK compared to 1: compared to compound 1
Excerpt: as §1

[4] = tested on: human U251-MG glioblastoma cells; assay: CyQuant cell count / proliferation assay; type: cell-based; settings: 400 nM, 48 h, vs DMSO
Experimental: 1 Compound 1 inhibits human U251 glioblastoma cell growth and labeled inositol phosphate levels. (A) Schematic of inositol phosphate metabolism. (B) Chemical structure of compound 1, indicating moiety A (blue highlight), the core (gray highlight), and moiety B (red highlight), and the IC50 value as determined by the kinase-GLO assay. (C) CyQuant cell count assay of 10,000 human U251-MG glioblastoma cells seeded per well, treated for 48 h with DMSO vehicle or 400 nM compound 1 (n = 8, ***p = 0.0046, unpaired t test). (D) HPLC analysis of ^3H-inositol phosphates from U251-MG cells treated with 400 nM compound 1 (red bars) or DMSO (blue bars) and metabolically labeled with ^3H-inositol for 48 h, expressed as the percentage of the inositol peak from the HPLC for InsP3, InsP4, InsP5, and InsP6, as indicated, *p < 0.05 by unpaired t test Bonferroni corrected for multiple comparisons. (E) Same data as in (D) replotted with a nonzero y-axis to facilitate visualizing differences between DMSO vs. compound treatment for each indicated inositol phosphate species, *p < 0.05 by unpaired t test Bonferroni corrected for multiple comparisons.
Error represents the standard error from 3 independent assays. (B) CyQuant cellular proliferation assay of 10,000 human U251-MG glioblastoma cells seeded per well, treated for 48 h with DMSO vehicle or 10 μM 14 (n = 8, ****p adj < 0.0001 by one-way ANOVA, Dunnett’s corrected; *p < 0.05 by unpaired t test). (C) HPLC analysis of ^3H-inositol phosphates from U251-MG cells treated with 10 μM compound 14 (red bars) or DMSO (blue bars) and metabolically labeled with ^3H-inositol for 48 h, expressed as a percentage of all the peaks detectable from the HPLC, *p < 0.05, **p < 0.01, ***p < 0.001 by unpaired t test compared to DMSO-treated control for all remaining panels, n = 3. (D) Same as (C) but expressed as a percentage of the inositol HPLC peak, n = 3. (E) Same as C but expressed as a percentage of all the inositol phosphate peaks combined from the HPLC, n = 3.

[5] = tested on: inositol phosphate levels in U251-MG cells; assay: 3H-inositol metabolic labeling and HPLC of inositol phosphates; type: cell-based, human; settings: 400 nM, 48 h, vs DMSO
Experimental: Human U251-MG glioblastoma cells (ECACC 09063001) were grown in DMEM supplemented with 10% FBS. The medium was changed to inositol-free DMEM, and cells were inositol-starved for 1–3 days. Cells were maintained in inositol-free DMEM medium, treated with the indicated inhibitor or DMSO for 1–2.5 h, and supplemented with 100 μCi ^3H-inositol (PerkinElmer) for 48 or 72 h, as indicated on each figure. Cells were then washed in PBS and lysed in 200 μL HCl (0.5 M), 250 μL of MeOH was added to each well of a 6-well plate (approximately 10^6 cells), followed by 125 μL of 2 M KCl. Lysates were scraped and sonicated on ice for three 1 min cycles. Inositol phosphate (IP) extracts were cleaned of lipids by adding 250 μL of CHCl3, vortexing and centrifuging samples for 2 min at 5000 rpm to separate upper aqueous and lower organic phases, upper phase contains soluble IPs. This extraction was repeated once. Samples were dried in a SpeedVac, resuspended in 10 mM ammonium phosphate (pH= 3.5), and filtered. HPLC separation and detection of the inositol species on the upper phase used a Partisphere SAX 4.6 mm × 250 mm column, eluted with 10 mM (buffer A) to 1.3 M (buffer B) ammonium phosphate (pH = 3.8) and online flow scintillation analyzer (FSA, PerkinElmer). Elution of [^32P]-labeled IP4, IP5, and IP6 standards confirmed the identity of each peak off the HPLC. Quantification represents three biologically independent metabolic labeling samples with error representing the standard deviation of the mean.

Solubility = type: physicochemical
[6] = Pharmacokinetic studies in mice; type: in vivo, male CD1 mice; settings: IV, 3 mg/kg; for AUC(0-t) / Cmax / clearance / half-life / Vd: male, CD1, mouse, plasma; for Vd: read-out: Vss
Experimental: All the procedures related to animal handling, care, and treatment in this study were performed according to guidelines approved by the Institutional Animal Care and Use Committee (IACUC) of Pharmaron (PK-R-06012023 and PK-M-07182023), following the guidance of the Association for Assessment and Accreditation of Laboratory Animal Care (AAALAC). A group of 3 male CD1 mice (2 for exploratory PK) were dosed intravenously (IV) or intraperitoneally (IP) with a solution formulation of the tested compounds in 10% NMP, 5% Solutol in normal saline (v/v/v, 10:5:85). From each mouse, blood samples ([…]) were collected from the orbital vein such that samples were obtained at 0.083, 0.25, 0.5, 1, 2, 4, 8, and 24 h post dose. At each time point, blood samples were collected from three mice in labeled microcentrifuge tubes containing EDTA-K2 as an anticoagulant. Plasma samples were separated by centrifugation of whole blood and stored at −75 ± 15 °C until bioanalysis. All samples were processed for analysis by precipitation using acetonitrile (ACN) and analyzed with a fit-for-purpose LC/MS/MS method (the below quantifiable limit (BLOQ) was 5.0 ng/mL). Pharmacokinetic parameters were calculated by a noncompartmental analysis model using WinNonlin 8.3.

[7] = supplementary csv, read-out: IPMK IC50
[8] = Kinase-Glo assay, 12.5 μM Ins(1,4,5)P3, 10 μM ATP, read-out: IC50 toward recombinant human IPMK

| Structure (SMILES) | IP6K2/IPMK [1] | IC50 [1] | IC50 [2, 7] | IC50 [2, 8] | AUC(0-t) [6] | Cmax [6] | clearance [6] | half-life [6] | Vd [6] | also measured |
| --- | --- | --- | --- | --- | --- | --- | --- | --- | --- | --- |
| Cc1cc(C)cc(-c2onc3ccc([C@H]4C[C@@H]4C(=O)O)cc23)c1 (racemic) [Compound 2, (±)-trans-2-(3-(3,5-Dimethylphenyl)benzo[c]isoxazol-5-yl)cyclopropane-1-carboxylic acid] | 1.6 | 265 ± 20 nM | 166 ± 19.6 nM | – | – | – | – | – | – | decrease of inhibitory activity toward IPMK compared to 1 [3]: 6 fold |
| Cc1cc(C)cc(-c2onc3ccc(/C=C/C(=O)O)cc23)c1 [Compound 1, (E)-3-(3-(3,5-Dimethylphenyl)benzo[c]isoxazol-5-yl)acrylic Acid] | 9.5 | 248 ± 119 nM | – | 26 nM and 26.2 nM | – | – | – | – | – | cell number, CyQuant DNA content assay [4]: significant decrease in cell number; accumulation of InsP4 [5]: significantly decreased; accumulation of InsP5 [5]: significantly decreased; accumulation of InsP6 [5]: significantly decreased |
| Cc1cc(C)cc(-c2onc3ccc(C(=O)O)cc23)c1 [Compound 3] | – | – | 215 ± 37.5 nM | – | – | – | – | – | – | decrease of inhibitory activity toward IPMK compared to 1 [3]: 8 fold |
| Cc1cc(C)cc(-c2onc3ccc(-c4nnn[nH]4)cc23)c1 [Compound 4, 3-(3,5-Dimethylphenyl)-5-(1H-tetrazol-5-yl)benzo[c]isoxazole] | 4.6 | 113 ± 69.5 nM | 24.7 ± 1.6 nM | 25 ± 1.6 nM | – | – | – | – | – | solubility compared to compound 3 (Solubility): improved; improved potency toward IPMK compared to compound 3 ([3]; compared to compound 3): 9 fold |
| FC(F)(F)c1ccc(-c2onc3ccc(-c4nnn[nH]4)cc23)cc1 [Compound 7, 5-(1H-Tetrazol-5-yl)-3-(4-(trifluoromethyl)phenyl)benzo[c]isoxazole] | 7.8 | 146 ± 97.1 nM | 18.6 ± 1.4 nM | 19 ± 1.4 nM | – | – | – | – | – | – |
| c1ccc(Oc2ccc(-c3onc4ccc(-c5nnn[nH]5)cc34)cc2)cc1 [Compound 9, 3-(4-Phenoxyphenyl)-5-(1H-tetrazol-5-yl)benzo[c]isoxazole] | 5.1 | 942 ± 348 nM | 185 ± 15.5 nM | – | – | – | – | – | – | – |

Continued, in another order:

| IP6K2/IPMK [1] | IC50 [1] | IC50 [2, 7] | IC50 [2, 8] | AUC(0-t) [6] | Cmax [6] | clearance [6] | half-life [6] | Vd [6] | Structure (SMILES) | also measured |
| --- | --- | --- | --- | --- | --- | --- | --- | --- | --- | --- |
| 3.5 | 125 ± 66.2 nM | 36 ± 5.5 nM | – | – | – | – | – | – | c1ccc(-c2onc3ccc(-c4nnn[nH]4)cc23)cc1 [Compound 6, 3-Phenyl-5-(1H-tetrazol-5-yl)benzo[c]isoxazole] | – |
| 5.0 | 91.7 ± 50.9 nM | 18.3 ± 1.6 nM | 18 ± 1.6 nM | 46.9 µM·h | 33 µM | 3.15 mL/min/kg | 0.92 h | 0.26 L/kg | FC(F)(F)Oc1ccc(-c2onc3ccc(-c4nnn[nH]4)cc23)cc1 [Compound 8, 5-(1H-Tetrazol-5-yl)-3-(4-(trifluoromethoxy)phenyl)benzo[c]isoxazole] | – |
| 5.1 | 297 ± 141 nM | 58.2 ± 3.4 nM | 58 ± 3.4 nM | – | – | – | – | – | O=C(Nc1ccc(-c2onc3ccc(-c4nnn[nH]4)cc23)cc1)C1CC1 [Compound 10, N-(4-(5-(1H-Tetrazol-5-yl)benzo[c]isoxazol-3-yl)phenyl)cyclopropanecarboxamide] | – |
| 3.5 | 107 ± 64.4 nM | 30.2 ± 1.7 nM | 30 ± 1.7 nM | 19.4 µM·h | 66.6 µM | 7.52 mL/min/kg | 1.09 h | 0.21 L/kg | O=C(Nc1cccc(-c2onc3ccc(-c4nnn[nH]4)cc23)c1)C1CC1 [Compound 11, N-(3-(5-(1H-Tetrazol-5-yl)benzo[c]isoxazol-3-yl)phenyl)cyclopropanecarboxamide] | – |
| 4.9 | 153 ± 79.8 nM | 31.3 ± 4 nM | 31 ± 4 nM | 10.8 µM·h | 44 µM | 11.8 mL/min/kg | 1.29 h | 0.23 L/kg | c1cc(OC2CCNCC2)cc(-c2onc3ccc(-c4nnn[nH]4)cc23)c1 [Compound 12, 3-(3-(Piperidin-4-yloxy)phenyl)-5-(1H-tetrazol-5-yl)benzo[c]isoxazole] | – |
| 1.8 | 129 ± 44.1 nM | 72.1 ± 5.2 nM | – | 7.7 µM·h | 50.5 µM | 15.5 mL/min/kg | 2.01 h | 0.27 L/kg | Clc1cnc(Oc2cccc(-c3onc4ccc(-c5nnn[nH]5)cc34)c2)c(Cl)c1 [Compound 13, 3-(3-((3,5-Dichloropyridin-2-yl)oxy)phenyl)-5-(1H-tetrazol-5-yl)benzo[c]isoxazole] | Vss (L/kg) [6]: increased |
